Tests used:
[1] = tested on: Puccinia recondita f. Sp. Tritici; assay: Fungicidal activity against Puccinia recondita f. sp. tritici / wheat / leaf disc preventative (brown rust); type: in vivo; details: foliar, 200 ppm in the applied formulation, wheat leaf segments cv. Kanzler, preventative (inoculated 1 day after application), compared to untreated, read-out: disease control
Summary of the method: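 Segments of wheat cv. Kanzler on water agar were sprayed with compound and inoculated with spores 1 day later. They were kept at 19 °C, 75% rh and 12 h light/12 h dark. Percent disease control versus untreated was scored 7–9 days after application; compounds were tested at 200 ppm.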

Phakopsora pachyrhizi = assay: Fungicidal activity against Phakopsora pachyrhizi / soybean / leaf disc preventative (Asian soybean rust); type: in vivo; details: foliar, 200 ppm in the applied formulation, soybean leaf disks, compared to untreated, read-out: disease control
Procedure: Leaf disks or leaf segments of various plant species are cut from plants grown in a greenhouse. The cut leaf disks or segments are placed in multiwell plates (24-well format) onto water agar. The leaf disks are sprayed with a test solution before (preventative) or after (curative) inoculation. Compounds to be tested are prepared as DMSO solutions (max. 10 mg/mL) which are diluted to the appropriate concentration with 0.025% Tween20 just before spraying. The inoculated leaf disks or segments are incubated under defined conditions (temperature, relative humidity, light, etc.) according to the respective test system. A single evaluation of disease level is carried out 3 to 14 days after inoculation, depending on the pathosystem. Percent disease control relative to the untreated check leaf disks or segments is then calculated. Soybean leaf disks are placed on water agar in multiwell plates (24-well format) and sprayed with the formulated test compound diluted in water. One day after application leaf discs are inoculated by spraying a spore suspension on the lower leaf surface. After an incubation period in a climate cabinet of 24-36 hours in darkness at 20° C. and 75% rh leaf disc are kept at 20° C. with 12 h light/day and 75% rh. The activity of a compound is assessed as percent disease control compared to untreated when an appropriate level of disease damage appears in untreated check leaf disks (12 to 14 days after application). The following compounds at 200 ppm in the applied formulation give at least 80% disease control in this test when compared to untreated control leaf disks under the same conditions, which show extensive disease development.

[2] = tested on: Puccinia recondita f. Sp. Tritici; assay: Fungicidal activity against Puccinia recondita f. sp. tritici / wheat / leaf disc curative (brown rust); type: in vivo; details: foliar, 24 h, 200 ppm in the applied formulation, wheat leaf segments cv. Kanzler, curative (applied 1 day after inoculation), compared to untreated, read-out: disease control
Summary of the method: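 Wheat leaf segments (cv. Kanzler) on agar were inoculated with brown rust spores, kept dark at 19 °C and 75% RH, then sprayed 1 day later with compound (DMSO stock diluted in 0.025% Tween20). Under 12 h light/12 h dark at 19 °C, percent disease control versus untreated was scored 6–8 days after application; 200 ppm applied.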

[3] = tested on: Glomerella lagenarium (Colletotrichum lagenarium); assay: Fungicidal activity against Glomerella lagenarium (Colletotrichum lagenarium) liquid culture / cucumber / preventative (anthracnose); type: cell-based; details: Colletotrichum orbiculare; 20 ppm in the applied formulation; liquid culture (PDB), inhibition of growth measured photometrically 3 to 4 days after application; compared to untreated; read-out: disease control
Summary of the method: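 Conidia from cryogenic storage mixed into potato dextrose broth and added to compound in DMSO in microtiter plates. Incubated at 24° C.; growth inhibition read photometrically 3 to 4 days after application. Disease control expressed relative to untreated control, with compound at 20 ppm in the applied formulation.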

Structure (SMILES) | melting point [°C] | pest or weed control at 200 ppm [1] [%] | pest or weed control at 200 ppm (Phakopsora pachyrhizi) [%] | pest or weed control at 200 ppm [2] [%] | inhibition of growth at 20 ppm [3] [%]
CCCOC(=O)c1ncn(Cc2ccc(-c3noc(C(F)(F)F)n3)s2)n1 [Compound 1.43, propyl 1-[[5-[5-(trifluoromethyl)-1,2,4-oxadiazol-3-yl]-2-thienyl]methyl]-1,2,4-triazole-3-carboxylate] | 140 to 160 | ≥ 80 | ≥ 80 | ≥ 80 | ≥ 80
CCOC(=O)c1ncn(Cc2ccc(-c3noc(C(F)(F)F)n3)s2)n1 [Compound 1.40, ethyl 1-[[5-[5-(trifluoromethyl)-1,2,4-oxadiazol-3-yl]-2-thienyl]methyl]-1,2,4-triazole-3-carboxylate] | 136 to 140 | ≥ 80 | ≥ 80 | ≥ 80 | ≥ 80
CC(c1ccc(-c2noc(C(F)(F)F)n2)s1)n1cc(C(=O)N2CCC2)cn1 (stereo not shown) [Compound 1.35, azetidin-1-yl-[1-[1-[5-[5-(trifluoromethyl)-1,2,4-oxadiazol-3-yl]-2-thienyl]ethyl]pyrazol-4-yl]methanone] | 76 to 78 | ≥ 80 | ≥ 80 | ≥ 80 | ≥ 80
CCOC(=O)c1cnn(C(C)c2ccc(-c3noc(C(F)(F)F)n3)s2)c1 (stereo not shown) [Compound 1.30, ethyl 1-[1-[5-[5-(trifluoromethyl)-1,2,4-oxadiazol-3-yl]-2-thienyl]ethyl]pyrazole-4-carboxylate] |  | ≥ 80 | ≥ 80 | ≥ 80 | ≥ 80
CCCOC(=O)c1ncnn1Cc1ccc(-c2noc(C(F)(F)F)n2)s1 [Compound 1.44, propyl 2-[[5-[5-(trifluoromethyl)-1,2,4-oxadiazol-3-yl]-2-thienyl]methyl]-1,2,4-triazole-3-carboxylate] |  | ≥ 80 | ≥ 80 | ≥ 80 | ≥ 80
COC(=O)c1ncnn1Cc1ccc(-c2noc(C(F)(F)F)n2)s1 [Compound 1.55, methyl 2-[[5-[5-(trifluoromethyl)-1,2,4-oxadiazol-3-yl]-2-thienyl]methyl]-1,2,4-triazole-3-carboxylate] |  | ≥ 80 | ≥ 80 | ≥ 80 | ≥ 80
COCc1nn(Cc2ccc(-c3noc(C(F)(F)F)n3)s2)cc1C(=O)OC [Compound 1.19, methyl 3-(methoxymethyl)-1-[[5-[5-(trifluoromethyl)-1,2,4-oxadiazol-3-yl]-2-thienyl]methyl]pyrazole-4-carboxylate] |  | ≥ 80 | ≥ 80 | ≥ 80 | ≥ 80
CCOC(=O)c1cnn(Cc2cc(-c3noc(C(F)(F)F)n3)cs2)c1 [Compound 1.26, ethyl 1-[[4-[5-(trifluoromethyl)-1,2,4-oxadiazol-3-yl]-2-thienyl]methyl]pyrazole-4-carboxylate] | 119 to 123 | ≥ 80 |  |  | ≥ 80
Nc1nc(C(F)F)nn1Cc1ccc(-c2noc(C(F)(F)F)n2)s1 [Compound 1.14, 5-(difluoromethyl)-2-[[5-[5-(trifluoromethyl)-1,2,4-oxadiazol-3-yl]-2-thienyl]methyl]-1,2,4-triazol-3-amine] |  | ≥ 80 | ≥ 80 | ≥ 80 | ≥ 80
CC(c1ccc(-c2noc(C(F)(F)F)n2)s1)n1cc(C(=O)O)cn1 (stereo not shown) [Compound 1.37, 1-[1-[5-[5-(trifluoromethyl)-1,2,4-oxadiazol-3-yl]-2-thienyl]ethyl]pyrazole-4-carboxylic acid] | 133 to 143 | ≥ 80 |  | ≥ 80 | ≥ 80

Now from value to molecule, other results behind:

melting point [°C] | Structure (SMILES) | pest or weed control at 200 ppm [1] [%] | pest or weed control at 200 ppm (Phakopsora pachyrhizi) [%] | pest or weed control at 200 ppm [2] [%] | inhibition of growth at 20 ppm [3] [%]
124 to 126 | CNC(=O)c1ccn(Cc2ccc(-c3noc(C(F)(F)F)n3)s2)n1 [Compound 1.51, N-methyl-1-[[5-[5-(trifluoromethyl)-1,2,4-oxadiazol-3-yl]-2-thienyl]methyl]pyrazole-3-carboxamide] | ≥ 80 | ≥ 80 | ≥ 80 | ≥ 80
90 to 96 | CN(C)C(=O)c1ccn(Cc2ccc(-c3noc(C(F)(F)F)n3)s2)n1 [Compound 1.57, N,N-dimethyl-1-[[5-[5-(trifluoromethyl)-1,2,4-oxadiazol-3-yl]-2-thienyl]methyl]pyrazole-3-carboxamide] | ≥ 80 | ≥ 80 | ≥ 80 | ≥ 80
132 to 140 | CNC(=O)c1ncnn1Cc1ccc(-c2noc(C(F)(F)F)n2)s1 [Compound 1.48, N-methyl-2-[[5-[5-(trifluoromethyl)-1,2,4-oxadiazol-3-yl]-2-thienyl]methyl]-1,2,4-triazole-3-carboxamide] | ≥ 80 | ≥ 80 | ≥ 80 | ≥ 80
145 to 165 | O=C(O)c1ccnn1Cc1ccc(-c2noc(C(F)(F)F)n2)s1 [Compound 1.64, 2-[[5-[5-(trifluoromethyl)-1,2,4-oxadiazol-3-yl]-2-thienyl]methyl]pyrazole-3-carboxylic acid] | ≥ 80 |  | ≥ 80 | ≥ 80
210 to 220 | O=C(O)c1ncn(Cc2ccc(-c3noc(C(F)(F)F)n3)s2)n1 [Compound 1.63, 1-[[5-[5-(trifluoromethyl)-1,2,4-oxadiazol-3-yl]-2-thienyl]methyl]-1,2,4-triazole-3-carboxylic acid] | ≥ 80 |  | ≥ 80 | 
120 to 124 | CCOC(=O)c1ccn(Cc2ccc(-c3noc(C(F)(F)F)n3)s2)n1 [Compound 1.42, ethyl 1-[[5-[5-(trifluoromethyl)-1,2,4-oxadiazol-3-yl]-2-thienyl]methyl]pyrazole-3-carboxylate] | ≥ 80 | ≥ 80 | ≥ 80 | ≥ 80
150.8 to 155.7 | CNC(=O)c1cnn(Cc2ccc(-c3noc(C(F)(F)F)n3)s2)c1 [Compound 1.38, N-methyl-1-[[5-[5-(trifluoromethyl)-1,2,4-oxadiazol-3-yl]-2-thienyl]methyl]pyrazole-4-carboxamide] | ≥ 80 | ≥ 80 | ≥ 80 | ≥ 80
88 to 94 | CCCOC(=O)c1ccn(Cc2ccc(-c3noc(C(F)(F)F)n3)s2)n1 [Compound 1.46, propyl 1-[[5-[5-(trifluoromethyl)-1,2,4-oxadiazol-3-yl]-2-thienyl]methyl]pyrazole-3-carboxylate] | ≥ 80 | ≥ 80 | ≥ 80 | ≥ 80
198 to 218 | CNC(=O)c1ncn(Cc2ccc(-c3noc(C(F)(F)F)n3)s2)n1 [Compound 1.49, N-methyl-1-[[5-[5-(trifluoromethyl)-1,2,4-oxadiazol-3-yl]-2-thienyl]methyl]-1,2,4-triazole-3-carboxamide] | ≥ 80 | ≥ 80 | ≥ 80 | ≥ 80
182 to 185 | O=C(O)c1cnn(Cc2ccc(-c3noc(C(F)(F)F)n3)s2)c1 [Compound 1.36, 1-[[5-[5-(trifluoromethyl)-1,2,4-oxadiazol-3-yl]-2-thienyl]methyl]pyrazole-4-carboxylic acid] | ≥ 80 |  | ≥ 80 | ≥ 80

— patent US11358957B2, “Microbiocidal oxadiazole derivatives” (SYNGENTA PARTICIPATIONS AG, priority 2017, dated 2022)
